Source: paper PMC4992826, “Male tarsi specific odorant-binding proteins in the diving beetle Cybister japonicus sharp” (Scientific Reports, 2016)

Columns and labels:
[1] = target: T1, CjapOBP2 (Cybister japonicus, UniProt A0A1Q1N694); test: Competitive fluorescence binding assay with 1-NPN as reporter; details: protein 5 μM, 1-NPN 2 μM, competitor up to 16 μM
Source text: (§1) To characterize the ligand-binding properties of the two OBPs, we performed fluorescence binding assays with several chemicals having different structures using N-phenyl-1-naphthylamine (1-NPN) as a fluorescent reporter. In the absence of any information about potential semiochemicals for this insect, as well as for related species, we selected some common plant volatiles, such as citral, coniferyl aldehyde, eugenol and 2-isobutyl-3-mthoxypyrazine, and structurally similar compounds. 1-NPN binds CjapOBP1 and CjapOBP2 with dissociation constants of 3.3 and 2.1 μM respectively (Fig. 5A). Among the ligands tested, we identified a single good ligand for each protein, citral for CjapOBP1 and coniferyl aldehyde for CjapOBP2 (Fig. 5B,C).
(§2) Figure 5 Affinity of CjapOBPs to candidate chemical ligands. (A) Both CjapOBP1 and CjapOBP2 bind the fluorescent probe 1-NPN, with dissociation constants of 3.3 μM and 2.1 μM, respectively. (B) Competitive binding curves of selected ligands to the two CjapOBPs. Mixtures of proteins (5 μM) and 1-NPN (2 μM) were titrated with 1mM solutions of the ligands in methanol. […] (C) The chemical structures of the chemicals applied.
(§3) To measure the affinity of the fluorescent ligand N-phenyl-1-naphthylamine (1-NPN), a 2 μM solution of the protein in 50 mM Tris-HCl (pH 7.4) was titrated with aliquots of 1 mM 1-NPN in methanol to final concentrations of 1–16 μM. The probe was excited at 337 nm, and emission spectra were recorded between 380 and 450 nm. The affinity of other ligands was measured in competitive binding assays, using the protein and the fluorescent reporter 1-NPN at the concentration of 5 μM and 2 μM respectively, while increasing the final concentration of each competitor up to 16 μM. Dissociation constants for 1-NPN were evaluated from Scatchard plots of the binding data, and other ligands were calculated from the corresponding IC50 values, using the equation: KD = [IC50]/1+[1-NPN]/K1-NPN, [1-NPN] being the free concentration of 1-NPN and K1-NPN being the dissociation constant of the complex protein/1-NPN.

[2] = target: T2, CjapOBP1 (Cybister japonicus, UniProt A0A1Q1N696); test: as above; details: protein 5 μM, 1-NPN 2 μM, competitor up to 16 μM
T2 sequence (A0A1Q1N696 17-136): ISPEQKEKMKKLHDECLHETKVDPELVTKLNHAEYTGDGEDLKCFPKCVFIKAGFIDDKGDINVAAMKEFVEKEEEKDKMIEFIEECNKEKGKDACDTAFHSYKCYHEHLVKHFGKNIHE
Source text: as §1, §2, §3

[3] = target: T1, CjapOBP2; test: Fluorescence binding assay, direct titration with 1-NPN; details: recombinant CjapOBP2, 2 μM protein in 50 mM Tris-HCl pH 7.4, titrated with 1-NPN 1–16 μM; Scatchard plot; read-out: dissociation constant
Source text: as §1, §2
(§4) To measure the affinity of the fluorescent ligand N-phenyl-1-naphthylamine (1-NPN), a 2 μM solution of the protein in 50 mM Tris-HCl (pH 7.4) was titrated with aliquots of 1 mM 1-NPN in methanol to final concentrations of 1–16 μM. […]

[4] = target: T2, CjapOBP1; test: as above; details: recombinant CjapOBP1, 2 μM protein in 50 mM Tris-HCl pH 7.4, titrated with 1-NPN 1–16 μM; Scatchard plot; read-out: dissociation constant
Source text: as §1, §2, §4

T1 sequence (A0A1Q1N694 entry or part of it): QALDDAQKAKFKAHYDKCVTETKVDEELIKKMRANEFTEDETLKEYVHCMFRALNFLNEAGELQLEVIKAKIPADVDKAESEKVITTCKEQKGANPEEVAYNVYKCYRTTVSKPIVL

| Structure (SMILES) | binding to CjapOBP2 (displacement of 1-NPN) [1] | further results |
| --- | --- | --- |
| C=CCc1ccc(O)c(OC)c1 [eugenol] | did not show appreciable binding |  |
| COc1cc(/C=C/C=O)ccc1O [coniferyl aldehyde] | good ligand |  |
| CO/C(C=O)=C\c1ccccc1 [α-methoxycinnamaldehyde] | did not show appreciable binding |  |
| CC(C)=CCCC(C)=CC=O (mixture of isomers) [citral] |  | binding to CjapOBP1 (displacement of 1-NPN) [2]: good ligand |
| COc1cc(CCC(=O)O)ccc1O [dihydroferulic acid] | did not show appreciable binding |  |
| c1ccc(Nc2cccc3ccccc23)cc1 [1-NPN, N-phenyl-1-naphthylamine] |  | Kd [3]: 2100 nM; Kd [4]: 3300 nM |
